Reference: US20240158383A1, “RIBONUCLEOTIDE REDUCTASE (RNR) INHIBITORS AND USES THEREOF” (Boundless Bio, Inc., priority 2021, published 2024)

Key:
RNR (RNR1:RNR2) = RNR (RNR1:RNR2) (Homo sapiens (Human), UniProt P23921+P31350); test: RNR enzyme activity, rapid-fire mass spectrometry (RFMS) assay; format: biochemical; conditions: [RNR] 50 nM, 1:1 RNR1:RNR2, [CDP] 5 μM, [ATP] 1 mM, 37° C., 45 min
Procedure: A rapid-fire mass spectrometry (RFMS) assay was used to assess RNR enzyme activity using a 384 well plate and a robotic platform.
The plate layout included two validated reference compounds (Triapine (3-AP) and Hydroxyurea (HU)): • A dose response in duplicate; top concentration: 5 μM (3-AP) and 250 μM (HU), semi-log • dilutions. • Spike wells in triplicate randomly spotted at four concentrations: • 250 μM, 100 μM, 30 μM and 2 μM for HU • 5 μM, 2 μM, 0.6 μM and 0.04 μM for 3-AP
First, the multidrop pipes were saturated for 30 minutes with enzymatic solution. Then 30 μL of Stop solution was distributed in column 24. Next, 15 μL of enzyme was distributed in column 1 to 24. Next, a pre-incubation step of 15 minutes at room temperature occurred, followed by distribution of 15 μL of substrate solution (column 1 to 24). Next, the plate was incubated for 45 minutes at 37° C. 30 μL of Stop solution was distributed to columns 1 to 23.
The final parameters for the enzyme reactions were: • Incubation: 37° C., 45 min • [CDP]: 5 μM; [ATP]: 1 mM; [NADPH]: No • [RNR]final: 50 nM with 1:1 (RNR1:RNR2) ratio • Final volume: 30 μL • Stop solution: 6% HCOOH containing 2 μM of 15
The compounds were screened at concentrations from 10 nM to 30 μM.

[1] = tested on: pCHK1 (S345) in Colo320 DM cells; test: CHK1 cellular activity (phospho-CHK1 AlphaLisa); format: cell-based, human; conditions: compound overnight (approximately 16 hours)
Procedure: Phospho-CHK1 cellular activity was measured as a marker of replication stress which is a consequence of RNR inhibition.
Colo320 DM cells (ATCC #CCL-220, derived from human colorectal adenocarcinoma, Dukes' type C) were seeded on a 96-well cell culture treated assay plate at a density of 50,000 cells/well in 200 μL of RPMI-1640 media supplemented with 10% Fetal Bovine Serum and incubated at 37 degrees Celsius overnight. The following day, test compound dilutions were added directly to the plated cells by a Tecan digital dispenser to a final DMSO concentration of <0.5% and incubated at 37 degrees Celsius overnight (approximately 16 hours). The following day all culture media is removed from the cells. 75 μL of 1× AlphaLisa lysis buffer is added to each well and plates are agitated on a shaker for 30 minutes at room temperature. The lysis of cells and detection of pCHK1 (S345) are performed with reagents contained within the AlphaLisa Sure Fire assay kit (Perkin Elmer #ALSU-PCHK1-A) according to the manufacturer's instructions. 10 μL of each lysate was then transferred to a white, 384-well assay plate (Perkin Elmer #6008280). 5 μL of Acceptor mix was then added to each well of lysate in the white, 384-well assay plate and incubated in the dark at room temperature for 60 minutes. 5 μL of Donor mix was then added to each well of the white, 384-well assay plate in subdued light and incubated at room temperature for 60 minutes. Plates are read on an Alpha Technology-compatible plate reader using standard AlphaLisa settings.

Chain of RNR (RNR1:RNR2) (P23921 whole entry): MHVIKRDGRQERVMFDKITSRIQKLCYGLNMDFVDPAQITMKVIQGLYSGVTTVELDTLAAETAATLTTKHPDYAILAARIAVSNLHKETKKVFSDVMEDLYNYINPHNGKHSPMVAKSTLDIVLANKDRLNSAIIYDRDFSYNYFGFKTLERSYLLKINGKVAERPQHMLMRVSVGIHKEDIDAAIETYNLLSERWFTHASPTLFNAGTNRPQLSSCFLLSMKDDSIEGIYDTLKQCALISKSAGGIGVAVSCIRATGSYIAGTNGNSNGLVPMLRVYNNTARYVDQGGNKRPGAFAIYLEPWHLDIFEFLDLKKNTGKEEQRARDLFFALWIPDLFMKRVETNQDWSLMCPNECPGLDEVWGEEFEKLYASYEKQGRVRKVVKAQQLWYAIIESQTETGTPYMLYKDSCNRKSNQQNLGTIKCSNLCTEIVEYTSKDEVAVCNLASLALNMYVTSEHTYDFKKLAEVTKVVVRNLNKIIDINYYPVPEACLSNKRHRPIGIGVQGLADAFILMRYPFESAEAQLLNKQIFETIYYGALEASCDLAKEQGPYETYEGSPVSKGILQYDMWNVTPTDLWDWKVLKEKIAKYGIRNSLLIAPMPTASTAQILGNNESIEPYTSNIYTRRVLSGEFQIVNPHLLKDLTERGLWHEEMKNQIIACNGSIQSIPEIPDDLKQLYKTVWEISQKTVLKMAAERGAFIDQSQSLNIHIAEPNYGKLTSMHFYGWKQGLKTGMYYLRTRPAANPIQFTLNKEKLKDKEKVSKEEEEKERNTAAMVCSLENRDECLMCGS
Chain of RNR (RNR1:RNR2) (P31350 whole entry): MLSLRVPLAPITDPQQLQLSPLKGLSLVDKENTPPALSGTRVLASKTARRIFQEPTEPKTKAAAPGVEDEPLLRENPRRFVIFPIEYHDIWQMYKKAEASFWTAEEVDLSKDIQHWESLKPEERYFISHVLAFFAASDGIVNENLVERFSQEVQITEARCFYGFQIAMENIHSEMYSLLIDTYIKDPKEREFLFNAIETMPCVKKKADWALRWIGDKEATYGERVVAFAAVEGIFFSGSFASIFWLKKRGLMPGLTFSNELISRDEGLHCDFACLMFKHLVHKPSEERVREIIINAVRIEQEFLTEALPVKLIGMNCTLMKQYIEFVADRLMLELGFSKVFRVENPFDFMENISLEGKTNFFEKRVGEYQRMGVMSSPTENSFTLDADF

| IC50 (RNR (RNR1:RNR2)) [µM] | IC50 ([1]; Homo sapiens, COLO 320DM, 16 h) [µM] | IC50 [1] [µM] | Structure (SMILES) |
| --- | --- | --- | --- |
| ≤ 0.1 | 10 to 30 |  | COc1c(S(=O)(=O)N[C@H](c2nn[nH]n2)[C@H](C)c2c(F)ccc(C)c2C)ccc(Cl)c1[C@H](C)O (racemic) [Example 16, rac-4-chloro-N-((1R,2S)-2-(6-fluoro-2,3-dimethyphenyl)-1-(2H-tetrazol-5-yl)propyl)-3-((R)-1-hydroxyethyl)-2-methoxybenzenesulfonamide] |
| ≤ 0.1 | 10 to 30 |  | COc1c(S(=O)(=O)N[C@H](c2nn[nH]n2)[C@H](C)c2c(F)ccc(C)c2C)ccc(Cl)c1[C@@H](C)O (racemic) [Example 17, rac-4-chloro-N-((1R,2S)-2-(6-fluoro-2,3-dimethylphenyl)-1-(2H-tetrazol-5-yl)propyl)-3-((S)-1-hydroxyethyl)-2-methoxybenzenesulfonamide] |
| ≤ 0.1 | ≤ 10 |  | Cc1ccc(F)c([C@@H](C)[C@H](NS(=O)(=O)c2ccc(Cl)cc2N(C)C)c2nn[nH]n2)c1C (racemic) [Example 71, rac-4-chloro-2-(dimethylamino)-N-((1R,2S)-2-(6-fluoro-2,3-dimethylphenyl)-1-(2H-tetrazol-5-yl)propyl)benzenesulfonamide] |
| ≤ 0.1 | 50 to 100 |  | Cc1ccc(F)c([C@@H](C)[C@H](NS(=O)(=O)c2ccc(Cl)cc2C(N)=O)c2nn[nH]n2)c1C [Example 2, 5-chloro-2-(N-((1S,2R)-2-(6-fluoro-2,3-dimethylphenyl)-1-(2H-tetrazol-5-yl)propyl)sulfamoyl)benzamide] |
|  | 10 to 30 |  | Cc1ccc(F)c([C@@H](C)[C@H](NS(=O)(=O)c2ccc(Cl)cc2Br)c2nn[nH]n2)c1C [Example 65, 2-bromo-4-chloro-N-((1S,2R)-2-(6-fluoro-2,3-dimethylphenyl)-1-(2H-tetrazol-5-yl)propyl)benzenesulfonamide] |
|  | 50 to 100 |  | Cc1ccc(F)c([C@@H](C)[C@H](NS(=O)(=O)c2ccc(Cl)c([C@@H](F)C(=O)N(C)C)c2)c2nn[nH]n2)c1C [Example 66, (R)-2-(2-chloro-5-(N-((1S,2R)-2-(6-fluoro-2,3-dimethylphenyl)-1-(2H-tetrazol-5-yl)propyl)sulfamoyl)phenyl)-2-fluoro-N,N-dimethylacetamide] |
|  | 50 to 100 |  | Cc1ccc(F)c([C@@H](C)[C@H](NS(=O)(=O)c2ccc(Cl)c([C@H](F)C(=O)N(C)C)c2)c2nn[nH]n2)c1C [Example 67, (S)-2-(2-chloro-5-(N-((1S,2R)-2-(6-fluoro-2,3-dimethylphenyl)-1-(2H-tetrazol-5-yl)propyl)sulfamoyl)phenyl)-2-fluoro-N,N-dimethylacetamide] |
|  | 50 to 100 |  | Cc1ccc(F)c([C@@H](C)[C@H](NS(=O)(=O)c2ccc(Cl)cc2C(=O)N(C)C)c2nn[nH]n2)c1C [Example 68, 5-chloro-2-(N-((1S,2R)-2-(6-fluoro-2,3-dimethylphenyl)-1-(2H-tetrazol-5-yl)propyl)sulfamoyl)-N,N-dimethylbenzamide] |

The remaining lines, values behind:

| Structure (SMILES) | IC50 (RNR (RNR1:RNR2)) [µM] | IC50 ([1]; Homo sapiens, COLO 320DM, 16 h) [µM] | IC50 [1] [µM] |
| --- | --- | --- | --- |
| Cc1ccc(F)c([C@@H](C)[C@H](NS(=O)(=O)c2cc(C(C)(C)O)c(Cl)cc2C(N)=O)c2nn[nH]n2)c1C (racemic) [Example 13, rac-5-chloro-2-(N-((1R,2S)-2-(6-fluoro-2,3-dimethylphenyl)-1-(2H-tetrazol-5-yl)propyl)sulfamoyl)-4-(2-hydroxypropan-2-yl)benzamide] | ≤ 0.1 | 50 to 100 |  |
| COC(=O)Cc1cc(Cl)ccc1S(=O)(=O)N[C@H](c1nn[nH]n1)[C@H](C)c1c(F)ccc(C)c1C (racemic) [Example 14, rac-methyl 2-(5-chloro-2-(N-((1R,2S)-2-(6-fluoro-2,3-dimethylphenyl)-1-(2H-tetrazol-5-yl)propyl)sulfamoyl)phenyl)acetate] | 0.1 to 1 | 10 to 30 |  |
| Cc1ccc(F)c([C@@H](C)[C@H](NS(=O)(=O)c2ncc(Br)cc2C(N)=O)c2nn[nH]n2)c1C (racemic) [Example 15, rac-5-bromo-2-(N-((1R,2S)-2-(6-fluoro-2,3-dimethylphenyl)-1-(2H-tetrazol-5-yl)propyl)sulfamoyl)nicotinamide] | ≤ 0.1 | 50 to 100 |  |
| Cc1ccc(F)c([C@@H](C)[C@H](NS(=O)(=O)c2ccc(C#N)cc2OC(F)F)c2nn[nH]n2)c1C (racemic) [Example 69, rac-4-cyano-2-(difluoromethxoy)-N-((1R,2S)-2-(6-fluoro-2,3-dimethylphenyl)-1-(2H-tetrazol-5-yl)propyl)benzenesulfonamide] | 0.1 to 1 | 50 to 100 |  |
| COc1c(S(=O)(=O)N[C@H](c2nn[nH]n2)[C@H](C)c2c(F)ccc(C)c2C)ccc(C#N)c1F (racemic) [Example 70, rac-4-cyano-3-fluoro-N-((1R,2S)-2-(6-fluoro-2,3-dimethylphenyl)-1-(2H-tetrazol-5-yl)propyl)-2-methoxybenzenesulfonamide] | 0.1 to 1 | 50 to 100 |  |
| Cc1ccc(F)c([C@@H](C)[C@H](NS(=O)(=O)c2ccc(Cl)c3c2OCC[C@]3(C)O)c2nn[nH]n2)c1C (single isomer, unassigned) [Example 3] | ≤ 0.1 | 10 to 30 |  |
| Cc1ccc(F)c([C@@H](C)[C@H](NS(=O)(=O)c2ccc(Cl)c3c2OCC[C@@]3(C)O)c2nn[nH]n2)c1C (single isomer, unassigned) [Example 4] | ≤ 0.1 |  | 10 to 30 |
| COc1cc(Cl)ccc1S(=O)(=O)N[C@H](c1nn[nH]n1)[C@H](C)c1c(F)ccc(C)c1C [Example 1, 4-chloro-N-[(1S,2R)-2-(6-fluoro-2,3-dimethylphenyl)-1-(2H-1,2,3,4-tetrazol-5-yl)propyl]-2-methoxybenzene-1-sulfonamide] | ≤ 0.1 | ≤ 10 |  |
| Cc1ccc(F)c([C@@H](C)[C@H](NS(=O)(=O)c2ccc(Cl)cc2C#N)c2nn[nH]n2)c1C [Example 5, 4-chloro-2-cyano-N-((1S2R)-2-(6-fluoro-2,3-dimethylphenyl)-1-(2H-tetrazol-5-yl)propyl)benzenesulfonamide] | 0.1 to 1 | 50 to 100 |  |
| Cc1ccc(F)c([C@@H](C)[C@H](NS(=O)(=O)c2ccc(Cl)cc2NC(C)C)c2nn[nH]n2)c1C [Example 6, 4-chloro-N-((1S,2R)-2-(6-fluoro-2,3-dimethylphenyl)-1-(2H-tetrazol-5-yl)propyl)-2-(isopropylamino)benzenesulfonamide] |  | 50 to 100 |  |
| Cc1ccc(F)c([C@@H](C)[C@H](NS(=O)(=O)c2ccc(Cl)c3c2OCC[C@@]3(C)O)c2nn[nH]n2)c1C [Example 7, 5-((1S,2R)-1-(((R)-5-chloro-4-hydroxy-4-methylchromane)-8-sulfonamido)-2-(6-fluoro-2,3-dimethylphenyl)propyl)tetrazol-2-ide] | ≤ 0.1 |  | 30 to 50 |
| Cc1ccc(F)c([C@@H](C)[C@H](NS(=O)(=O)C2CCCCC2)c2nn[nH]n2)c1C [Example 8, N-((1S,4S)-2-(6-fluoro-2,3-dimethylphenyl)-1-(2H-tetraozl-5-yl)propyl)cyclohexanesulfonamide] | 1 to 5 | 50 to 100 |  |
| Cc1ccc(F)c([C@H](C)[C@H](c2nn[nH]n2)c2c(S(N)(=O)=O)ccc(Cl)c2C#N)c1C [Example 51, 4-chloro-3-cyano-2-((1S,2R)-2-(6-fluoro-2,3-dimethylphenyl)-1-(2H-tetrazol-5-yl)propyl)benzenesulfonamide] | 0.1 to 1 |  |  |
| Cc1ccc(F)c(S(=O)(=O)N[C@H](c2nn[nH]n2)[C@H](C)c2c(F)ccc(C)c2C)c1 [Example 52, 2-fluoro-N-((1S,2R)-2-(6-fluoro-2,3-dimethylpehnyl)-1-(2H-tetrazol-5-yl)propyl)-5-methylbenzenesulfonamide] | 1 to 5 |  |  |
| C=Cc1cc(Cl)ccc1S(=O)(=O)N[C@H](c1nn[nH]n1)[C@H](C)c1c(F)ccc(C)c1C [Example 63, 4-chloro-N-((1S,2R)-2-(6-fluoro-2,3-dimethylphenyl)-1-(2H-tetrazol-5-yl)propyl)-2-vinylbenzenesulfonamide] |  | 30 to 50 |  |
